Experiments:
[1] = Rat liver microsomal stability; format: in vitro ADME; settings: SD, rat, liver microsomes, read-out: Rat_SD/Microsomes t1/2 (m)
Experimental: The rat liver microsomal stability, parallel artificial membrane permeability assay (PAMPA), and aqueous kinetic solubility assay in phosphate-buffered saline (PBS) buffer were performed as described in the indicated references.

[2] = biological target: T1, Bovine Xanthine Oxidase (Bos taurus, UniProt P80457); test: Xanthine oxidase / hypoxanthine luminol chemiluminescence assay; format: biochemical; settings: xanthine oxidase with hypoxanthine; mean ± SD, n in cell; read-out: X/XO IC50
T1 construct: purchased Sigma
Experimental: Bovine Xanthine Oxidase (Sigma) was dialyzed in PBS to remove ammonium sulfate and stored at 4 °C. Hypoxanthine was prepared by heating in DMSO. Reactions were prepared by diluting xanthine oxidase in HBSS (final concentration 1.25 mU/mL) that contained 50 μM luminol and were preincubated 5 min with control or inhibitor before the addition of hypoxanthine at a final concentration of 0.5 mM. Luminescence was measured at 24 °C as described above.

[3] = biological target: T2, NOX1 (Homo sapiens, UniProt Q9Y5S8); test: Expi293 whole cell assay, NOX1 overexpression; format: cell-based; settings: highest dose about 100x the IC50 versus NOX2
T2 construct: expressed in transfected cells; host or cells: Expi293 (human embryonic kidney) cells, transient transfection
T2 sequence (Q9Y5S8 1-564): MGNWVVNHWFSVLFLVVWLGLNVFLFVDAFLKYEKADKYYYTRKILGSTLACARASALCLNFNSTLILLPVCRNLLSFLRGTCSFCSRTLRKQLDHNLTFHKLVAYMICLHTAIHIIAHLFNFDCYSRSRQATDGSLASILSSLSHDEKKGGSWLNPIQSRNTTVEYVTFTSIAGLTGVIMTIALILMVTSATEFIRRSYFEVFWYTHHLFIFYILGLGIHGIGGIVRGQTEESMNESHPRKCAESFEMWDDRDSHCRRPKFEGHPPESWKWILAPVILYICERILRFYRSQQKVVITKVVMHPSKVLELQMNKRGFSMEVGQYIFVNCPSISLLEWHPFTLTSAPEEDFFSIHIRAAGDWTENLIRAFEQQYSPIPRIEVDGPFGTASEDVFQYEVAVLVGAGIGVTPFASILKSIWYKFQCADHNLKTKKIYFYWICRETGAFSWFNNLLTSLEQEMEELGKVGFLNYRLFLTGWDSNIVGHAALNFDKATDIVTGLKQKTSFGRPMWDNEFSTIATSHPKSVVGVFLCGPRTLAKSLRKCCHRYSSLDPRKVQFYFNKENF
T2 sequence (P13498 2-195 partner limits assumed): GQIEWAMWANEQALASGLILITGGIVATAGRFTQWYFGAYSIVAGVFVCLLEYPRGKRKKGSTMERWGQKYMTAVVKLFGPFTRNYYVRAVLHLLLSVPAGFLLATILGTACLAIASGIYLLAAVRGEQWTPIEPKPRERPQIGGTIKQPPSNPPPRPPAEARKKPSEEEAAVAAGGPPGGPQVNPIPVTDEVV
Experimental: (§1) Given concerns about previous assays for specific NOX family members we here report the first use of the Expi293 Expression System (Thermo Scientific) to overexpress NOX1, 2, 3, 4, and 5 in excess of any endogenous NOX proteins present in these cells. Transfections were performed following the manufacturer's instructions using the plasmids for each NOX as described in Supplemental Table 2 except that the enhancer solution provided with the Expi293 system was not used because it promoted enzyme activation.
(§2) After the times indicated in Supplemental Table 2, cells were washed and 50,000 added per well of a white 96-well plate (Greiner) along with 50 μM Luminol and 2.5 U horseradish peroxidase/mL in a volume of 90 μl for NOX1, NOX2, and NOX5. Inhibitors or vehicle controls were added and cells were incubated for 20 min at 37 °C prior to activation with the indicated stimuli. For NOX3 and NOX4 (constitutively active), cells were incubated with inhibitor or vehicle control prior to the addition of luminol and HRP. Chemiluminescence was measured every 2 min for 1 s per well at 37 °C in a Varioscan Multimode reader. AUC data were analyzed using GraphPad Prism using non-linear regression analysis after expressing relative to control alone (maximum ROS production).

[4] = biological target: T3, NOX5 (Homo sapiens, UniProt Q96PH1); test: Expi293 whole cell assay, NOX5 overexpression; format: cell-based; settings: highest dose about 100x the IC50 versus NOX2
T3 sequence (Q96PH1 1-719 isoform Q96PH1-4): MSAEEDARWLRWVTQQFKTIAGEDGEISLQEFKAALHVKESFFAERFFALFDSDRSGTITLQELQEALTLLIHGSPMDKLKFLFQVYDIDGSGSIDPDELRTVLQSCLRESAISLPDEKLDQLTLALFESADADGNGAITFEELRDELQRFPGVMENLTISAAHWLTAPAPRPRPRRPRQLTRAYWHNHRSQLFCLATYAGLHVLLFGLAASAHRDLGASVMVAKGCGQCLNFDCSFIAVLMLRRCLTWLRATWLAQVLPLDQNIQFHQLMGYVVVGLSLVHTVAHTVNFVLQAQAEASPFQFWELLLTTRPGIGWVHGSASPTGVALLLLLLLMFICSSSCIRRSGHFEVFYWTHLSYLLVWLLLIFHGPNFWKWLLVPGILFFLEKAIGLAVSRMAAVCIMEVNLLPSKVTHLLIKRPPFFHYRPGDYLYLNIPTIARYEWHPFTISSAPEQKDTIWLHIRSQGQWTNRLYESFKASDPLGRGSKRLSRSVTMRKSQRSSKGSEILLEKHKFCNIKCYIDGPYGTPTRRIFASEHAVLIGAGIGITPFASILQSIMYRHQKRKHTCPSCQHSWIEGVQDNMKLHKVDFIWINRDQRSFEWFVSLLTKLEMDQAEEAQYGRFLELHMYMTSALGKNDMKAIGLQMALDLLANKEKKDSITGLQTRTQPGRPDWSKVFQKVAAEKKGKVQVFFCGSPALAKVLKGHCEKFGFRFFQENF
Experimental: as §1, §2

[5] = test system: mTBI induced cortical cell death; test: Focal cortical mTBI model, transcranial administration, cortical cell death (propidium iodide); format: in vivo, mouse

T1 sequence (P80457 whole entry): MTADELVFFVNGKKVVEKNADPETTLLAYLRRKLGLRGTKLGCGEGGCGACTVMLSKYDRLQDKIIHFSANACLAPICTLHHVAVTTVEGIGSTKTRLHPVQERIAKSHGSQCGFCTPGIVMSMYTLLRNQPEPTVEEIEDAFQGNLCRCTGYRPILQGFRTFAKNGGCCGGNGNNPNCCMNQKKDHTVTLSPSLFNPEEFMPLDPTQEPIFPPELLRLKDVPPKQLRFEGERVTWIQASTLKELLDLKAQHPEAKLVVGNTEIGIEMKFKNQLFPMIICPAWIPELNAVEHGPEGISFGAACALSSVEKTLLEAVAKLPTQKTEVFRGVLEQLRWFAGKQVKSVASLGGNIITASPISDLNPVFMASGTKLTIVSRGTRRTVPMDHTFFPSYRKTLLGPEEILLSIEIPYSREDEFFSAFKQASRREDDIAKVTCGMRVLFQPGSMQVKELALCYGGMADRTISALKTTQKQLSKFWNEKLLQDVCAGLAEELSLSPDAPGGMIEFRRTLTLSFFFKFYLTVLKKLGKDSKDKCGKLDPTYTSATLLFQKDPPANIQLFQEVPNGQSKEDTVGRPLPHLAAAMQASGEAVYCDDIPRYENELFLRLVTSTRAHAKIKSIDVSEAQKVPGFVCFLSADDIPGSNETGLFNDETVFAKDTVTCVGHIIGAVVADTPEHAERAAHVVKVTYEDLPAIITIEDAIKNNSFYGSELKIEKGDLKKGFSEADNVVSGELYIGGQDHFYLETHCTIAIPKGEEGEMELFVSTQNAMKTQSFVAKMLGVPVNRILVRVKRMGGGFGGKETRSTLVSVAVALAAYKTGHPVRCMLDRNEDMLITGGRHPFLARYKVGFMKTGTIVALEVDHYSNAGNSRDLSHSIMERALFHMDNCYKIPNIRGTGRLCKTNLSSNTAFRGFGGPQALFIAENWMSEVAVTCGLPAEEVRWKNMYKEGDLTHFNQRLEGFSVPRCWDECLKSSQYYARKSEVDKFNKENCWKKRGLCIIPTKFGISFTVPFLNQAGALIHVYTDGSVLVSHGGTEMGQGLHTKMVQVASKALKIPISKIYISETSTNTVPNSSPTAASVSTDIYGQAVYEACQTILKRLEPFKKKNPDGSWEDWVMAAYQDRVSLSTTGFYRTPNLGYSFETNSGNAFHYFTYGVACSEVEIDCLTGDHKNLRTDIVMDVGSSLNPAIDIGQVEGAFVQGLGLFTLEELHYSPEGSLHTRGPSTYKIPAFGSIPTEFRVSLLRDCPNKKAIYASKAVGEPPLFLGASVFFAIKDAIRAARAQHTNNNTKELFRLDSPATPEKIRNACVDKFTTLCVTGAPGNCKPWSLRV

## Cn1ccc(S(=O)(=O)Nc2ccnc3c2c(-c2ccc4ccn(C)c4c2)cn3C2CC2)n1 [NCATS-SM7270, N-(1-cyclopropyl-3-(1-methyl-1H-indol-6-yl)-1H-pyrrolo [2,3-b]pyridin-4-yl)-1-methyl-1H-pyrazole-3-sulfonamide]
[1]
  half-life: 3.7 min
[2]
  IC50: 4.1 ± 5.66 µM
[3]
  activity against NOX1: only marginal activity at the highest dose tested
[4]
  activity against NOX5: only marginal activity at the highest dose tested
[5]; NOX1 KO mice, 40 μM transcranial
  cortical cell death in NOX1 deficient mice: had no impact
[5]; NOX2 KO mice, 40 μM transcranial
  cortical cell death in NOX2 deficient mice: had no impact
[5]; NOX4 KO mice, 40 μM transcranial
  cortical cell death in NOX4 KO mice: significantly reduced cortical cell death
[5]; WT mice, 40 μM transcranially immediately after mTBI
  reduction of cortical cell death: ~50%
[5]; WT mice, transcranial, titration 10, 50 or 100 μM
  dose dependence of reduction in mTBI induced cortical cell death: dose-dependent reduction

From paper PMC9894920, “Development of an improved and specific inhibitor of NADPH oxidase 2 to treat traumatic brain injury” (Redox Biology, 2023)
